Laboratory results from ChEMBL document CHEMBL4819104, “Discovery of 2-amino-3-amido-5-aryl-pyridines as highly potent, orally bioavailable, and efficacious PERK kinase inhibitors” (Bioorg Med Chem Lett, 2021).
Converted amounts (≈) assume the structure as drawn.

Legend:
[1] = biological target: T1, Eukaryotic translation initiation factor 2-alpha kinase 3 (Homo sapiens, UniProt Q9NZJ5); experiment: Inhibition of human His-tagged PERK expressed in Escherichia coli assessed as eIF2alpha phosphorylation by TR-FRET assay
T1 sequence (Q9NZJ5 whole entry): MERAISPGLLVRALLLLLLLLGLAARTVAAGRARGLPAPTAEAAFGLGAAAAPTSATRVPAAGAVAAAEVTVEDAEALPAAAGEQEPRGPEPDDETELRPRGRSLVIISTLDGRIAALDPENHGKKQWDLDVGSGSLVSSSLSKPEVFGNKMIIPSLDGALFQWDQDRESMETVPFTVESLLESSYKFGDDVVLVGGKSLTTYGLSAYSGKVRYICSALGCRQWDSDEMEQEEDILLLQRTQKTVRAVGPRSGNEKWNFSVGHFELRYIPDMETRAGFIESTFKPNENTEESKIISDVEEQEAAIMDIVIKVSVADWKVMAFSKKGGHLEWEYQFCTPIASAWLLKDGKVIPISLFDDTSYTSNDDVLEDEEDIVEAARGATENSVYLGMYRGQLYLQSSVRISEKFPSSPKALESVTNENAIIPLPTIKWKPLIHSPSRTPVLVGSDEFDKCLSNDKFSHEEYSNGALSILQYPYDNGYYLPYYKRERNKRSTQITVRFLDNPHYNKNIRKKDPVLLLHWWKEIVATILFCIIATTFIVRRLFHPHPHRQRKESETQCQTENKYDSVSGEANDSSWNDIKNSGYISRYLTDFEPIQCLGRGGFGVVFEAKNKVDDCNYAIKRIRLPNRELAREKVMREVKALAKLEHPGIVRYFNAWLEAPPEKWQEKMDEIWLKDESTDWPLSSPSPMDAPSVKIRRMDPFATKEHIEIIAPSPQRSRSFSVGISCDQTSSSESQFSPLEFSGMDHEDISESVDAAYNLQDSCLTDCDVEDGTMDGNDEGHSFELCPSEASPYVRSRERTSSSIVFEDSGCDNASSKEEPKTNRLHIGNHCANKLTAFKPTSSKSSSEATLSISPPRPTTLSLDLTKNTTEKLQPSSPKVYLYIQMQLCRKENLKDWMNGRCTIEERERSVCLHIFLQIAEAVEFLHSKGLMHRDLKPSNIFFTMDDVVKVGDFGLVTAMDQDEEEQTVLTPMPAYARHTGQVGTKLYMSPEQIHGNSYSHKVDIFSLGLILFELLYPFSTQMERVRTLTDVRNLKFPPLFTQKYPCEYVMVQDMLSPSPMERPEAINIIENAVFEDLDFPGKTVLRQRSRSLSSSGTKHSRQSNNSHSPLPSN

[2] = Aqueous solubility of the compound; format: physicochemical; details: buffer
[3] = Apparent permeability of the compound across apical to basolateral side in human Caco-2 cells; format: ADME, cell-based; details: read-out: permeability
[4] = Efflux ratio of apparent permeability in human Caco-2 cells; format: ADME, cell-based
[5] = Plasma protein binding in human; format: ADME, cell-free; details: read-out: PPB (converted)
[6] = Plasma protein binding in rat; format: ADME, cell-free; details: read-out: PPB (converted)
[7] = Plasma protein binding in mouse; format: ADME, cell-free; details: read-out: PPB (converted)
[8] = Plasma protein binding in dog; format: ADME, cell-free, Canis lupus familiaris; details: read-out: PPB (converted)
[9] = Half life in human hepatocytes; format: ADME, cell-based, Hepatocyte
[10] = Half life in rat hepatocytes; format: ADME, cell-based, Hepatocyte
[11] = Half life in mouse hepatocytes; format: ADME, cell-based, Hepatocyte
[12] = Half life in dog hepatocytes; format: ADME, cell-based, Canis lupus familiaris, Hepatocyte

Row | SMILES | IC50 [1] [µM] | also measured
1 | Cc1cc(NC(=O)[C@@H](O)c2cc(F)cc(F)c2)ccc1-c1cnc(N)c(C(=O)NC(C)C)c1 | 0.026 | 
2 | Cc1cc(NC(=O)Cc2ccccc2)ccc1-c1cnc(N)c(C(=O)NC(C)C)c1 | 0.073 | 
3 | Cc1cc(NC(=O)[C@H](O)c2cccc(Cl)c2)ccc1-c1cnc(N)c(C(=O)NC(C)C)c1 | 0.003 | solubility [2]: 13 µM (≈ 5.89 µg/mL); Papp A→B [3]: 22 ×10⁻⁶ cm/s; efflux ratio [4]: 2.8; fraction unbound [5]: 0.004; fraction unbound [6]: 0.013; fraction unbound [7]: 0.006; fraction unbound [8]: 0.006; half-life [9]: 4.32 h; half-life [10]: 0.2 h; half-life [11]: 0.783 h; half-life [12]: 3.73 h
4 | Cc1cc(NC(=O)C(O)c2cc(F)cc(F)c2)ccc1-c1cnc(N)c(C(=O)O)c1 (stereo not given) | 0.241 | 
5 | Cc1cc(NC(=O)[C@H](O)c2ccccc2)ccc1-c1cnc(N)c(C(=O)NC(C)C)c1 | 0.009 | 
6 | Cc1cc(NC(=O)[C@H](O)c2cc(F)cc(F)c2)ccc1-c1cnc(N)c(C(=O)NC(C)(C)C)c1 | 0.033 | 
7 | Cc1cc(NC(=O)[C@@](C)(O)c2ccccc2)ccc1-c1cnc(N)c(C(=O)NC(C)C)c1 | 0.159 | 
8 | CNc1ncc(-c2ccc(NC(=O)[C@H](O)c3cc(F)cc(F)c3)cc2C)cc1C(=O)NC(C)C | 0.129 | 
9 | Cc1cccc([C@@H](O)C(=O)Nc2ccc(-c3cnc(N)c(C(=O)NC(C)C)c3)c(C)c2)c1 | 0.003 | 
10 | Cc1cc(NC(=O)Oc2ccccc2)ccc1-c1cnc(N)c(C(=O)NC(C)C)c1 | > 1 | 
11 | Cc1cc(NC(=O)[C@H](O)c2cc(F)cc(F)c2)ccc1-c1cnc(C)c(C(=O)NC(C)C)c1 | 0.068 | 
12 | Cc1cc(NC(=O)[C@H](O)c2cc(F)cc(F)c2)ccc1-c1cncc(C(=O)NC(C)C)c1 | 0.027 | 
13 | CC(C)NC(=O)c1cc(-c2ccc(NC(=O)[C@H](O)c3cc(F)cc(F)c3)cc2F)cnc1N | 0.017 | 
14 | COc1cc(NC(=O)[C@H](O)c2cc(F)cc(F)c2)ccc1-c1cnc(N)c(C(=O)NC(C)C)c1 | 0.085 | 
15 | Cc1cc(NC(=O)[C@H](N)c2ccccc2)ccc1-c1cnc(N)c(C(=O)NC(C)C)c1 | 1.46 | 

Further lines, with some results ahead:

Row | IC50 [1] [µM] | SMILES | also measured
16 | 0.008 | CNC(=O)c1nc(-c2ccc(NC(=O)[C@H](O)c3cc(F)cc(F)c3)cc2C)cnc1N | 
17 | 0.004 | CCNC(=O)c1cc(-c2ccc(NC(=O)[C@H](O)c3cc(F)cc(F)c3)cc2C)cnc1N | solubility [2]: 48 µM (≈ 21.1 µg/mL); Papp A→B [3]: 14 ×10⁻⁶ cm/s; efflux ratio [4]: 3.3; fraction unbound [5]: 0.019; fraction unbound [6]: 0.033; fraction unbound [7]: 0.028; fraction unbound [8]: 0.029; half-life [9]: 1.97 h; half-life [10]: 0.567 h; half-life [11]: 1.15 h; half-life [12]: 14.6 h
18 | 0.13 | Cc1cc(NC(=O)[C@](C)(O)c2ccccc2)ccc1-c1cnc(N)c(C(=O)NC(C)C)c1 | 
19 | 0.005 | Cc1cc(NC(=O)[C@H](O)c2cc(F)cc(F)c2)ccc1-c1cnc(N)c(C(=O)NC(C)C)n1 | 
20 | 0.075 | Cc1cc(NC(=O)[C@H](O)c2cc(F)cc(F)c2)ccc1-c1ccc(N)nc1 | 
21 | 0.599 | Cc1cc(NC(=O)[C@H](O)c2cc(F)cc(F)c2)ccc1-c1cnc(N)c(C(=O)N(C)C)c1 | 
22 | 0.014 | CNC(=O)c1cc(-c2ccc(NC(=O)[C@H](O)c3cc(F)cc(F)c3)cc2C)cnc1N | 
23 | > 1 | Cc1cc(NC(=O)[C@H](O)c2cc(F)cc(F)c2)ccc1-c1cc(C(=O)NC(C)C)c(N)nn1 | 
24 | 0.006 | CCc1cccc([C@@H](O)C(=O)Nc2ccc(-c3cnc(N)c(C(=O)NC(C)C)c3)c(C)c2)c1 | 
25 | 0.019 | Cc1cc(NC(=O)[C@H](O)c2cc(F)cc(F)c2)ccc1-c1cnc(N)c(C(=O)OC(C)C)c1 | 
26 | 1.35 | Cc1cc(NC(=O)Nc2ccccc2)ccc1-c1cnc(N)c(C(=O)NC(C)C)c1 | 
27 | > 1 | CO[C@@H](C(=O)Nc1ccc(-c2cnc(N)c(C(=O)NC(C)C)c2)c(C)c1)c1ccccc1 | 
28 | 0.023 | CC(C)NC(=O)c1cc(-c2ccc(NC(=O)[C@H](O)c3cc(F)cc(F)c3)cc2)cnc1N | 
